According to PubChem BioAssay AID256 (DTP/NCI, 2004):
Toxic doses and inconclusive results are not listed.

Tested on: CD2F1 mice, L1210 leukemia ip, survival T/C
Experiment: NCI In Vivo Anticancer Drug Screen. Data for tumor model L1210 Leukemia (intraperitoneal) in CD2F1 (CDF1) mice
Conditions: higher = longer survival
Outline: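 Compound-dosed mice with transplantable tumor versus matched vehicle controls; endpoint ratio T/C reported.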

[1] = endpoint: mean survival time, dose: 50.0 mg/kg/injection, schedule: Q01DX009 (ip), vehicle: Klucel (hydroxypropylcellulose) (HPC)
[2] = endpoint: mean survival time, dose: 100.0 mg/kg/injection, schedule: Q01DX009 (ip), vehicle: Klucel (hydroxypropylcellulose) (HPC)
[3] = endpoint: mean survival time, dose: 200.0 mg/kg/injection, schedule: Q01DX009 (ip), vehicle: Klucel (hydroxypropylcellulose) (HPC)
[4] = endpoint: mean survival time, dose: 100.0 mg/kg/injection, schedule: Q04DX003 (ip), vehicle: saline with Tween-80
[5] = endpoint: mean survival time, dose: 200.0 mg/kg/injection, schedule: Q04DX003 (ip), vehicle: saline with Tween-80
[6] = endpoint: mean survival time, dose: 400.0 mg/kg/injection, schedule: Q04DX003 (ip), vehicle: saline with Tween-80
[7] = endpoint: mean survival time, dose: 50.0 mg/kg/injection, schedule: Q01DX009 (ip), vehicle: saline with Tween-80

CSCSCC(N)CO (stereo not drawn)
T/C (endpoint: mean survival time, dose: 25.0 mg/kg/injection, schedule: Q01DX009 (ip), vehicle: Klucel (hydroxypropylcellulose) (HPC)): 102 % of control
T/C [1]: 94 % of control
T/C [2]: 93 % of control
T/C [3]: 96 % of control
T/C (endpoint: mean survival time, dose: 400.0 mg/kg/injection, schedule: Q01DX009 (ip), vehicle: Klucel (hydroxypropylcellulose) (HPC)): 96 % of control

O=[N+]([O-])/C=C\c1ccc2c(c1)OCO2
T/C [4]: 101 % of control
T/C [5]: 93 % of control
T/C [6]: 90 % of control

CC(=O)Nc1cccc(C(F)(F)F)c1
T/C [1]: 100 % of control
T/C [2]: 93 % of control
T/C [3]: 100 % of control

C#CCOC(=O)Nc1cccc(OC(=O)NC)c1
T/C [4]: 99 % of control
T/C [5]: 101 % of control
T/C [6]: 97 % of control

O=C(Sc1ccc([N+](=O)[O-])cc1)C(=O)Sc1ccc([N+](=O)[O-])cc1
T/C (endpoint: mean survival time, dose: 12.5 mg/kg/injection, schedule: Q01DX009 (ip), vehicle: saline with Tween-80): 91 % of control
T/C [7]: 98 % of control

NC(Cc1c[nH]c2ccc(N(CCCl)CCCl)cc12)C(=O)O (stereo not drawn)
T/C (endpoint: mean survival time, dose: 0.5 mg/kg/injection, schedule: Q01DX010 (ip), vehicle: saline): 150 % of control
T/C (endpoint: mean survival time, dose: 1.0 mg/kg/injection, schedule: Q01DX010 (ip), vehicle: saline): 160 % of control
T/C (endpoint: mean survival time, dose: 2.0 mg/kg/injection, schedule: Q01DX010 (ip), vehicle: saline): 208 % of control

Cc1ccc(S(=O)(=O)Oc2cccc(C)c2)cc1
T/C (endpoint: mean survival time, dose: 100.0 mg/kg/injection, schedule: Q01DX009 (ip), vehicle: saline with Tween-80): 96 % of control
T/C [4]: 100 % of control
T/C (endpoint: mean survival time, dose: 200.0 mg/kg/injection, schedule: Q01DX009 (ip), vehicle: saline with Tween-80): 96 % of control
T/C [5]: 99 % of control
T/C (endpoint: mean survival time, dose: 400.0 mg/kg/injection, schedule: Q01DX009 (ip), vehicle: saline with Tween-80): 91 % of control
T/C [6]: 94 % of control

CC([NH-])C(C)[NH-].CC([NH-])C(C)[NH-].[Cl][Co][Cl] (stereo not drawn)
T/C (endpoint: mean survival time, dose: 100.0 mg/kg/injection, schedule: Q04DX002 (ip), vehicle: saline): 103 % of control

CC(C)CC(=O)Nc1ccccc1
T/C (endpoint: mean survival time, dose: 100.0 mg/kg/injection, schedule: Q01DX009 (ip), vehicle: saline sonified): 101 % of control
T/C (endpoint: mean survival time, dose: 200.0 mg/kg/injection, schedule: Q01DX009 (ip), vehicle: saline sonified): 102 % of control
T/C (endpoint: mean survival time, dose: 400.0 mg/kg/injection, schedule: Q01DX009 (ip), vehicle: saline sonified): 93 % of control

N/C(=N/N=C/c1cc(Br)cc(Br)c1O)NO
T/C (endpoint: median survival time, dose: 12.5 mg/kg/injection, schedule: Q01DX005 (ip), vehicle: suspension in saline): 105 % of control
T/C (endpoint: median survival time, dose: 25.0 mg/kg/injection, schedule: Q01DX005 (ip), vehicle: suspension in saline): 100 % of control
T/C (endpoint: median survival time, dose: 50.0 mg/kg/injection, schedule: Q01DX005 (ip), vehicle: suspension in saline): 105 % of control
T/C (endpoint: median survival time, dose: 100.0 mg/kg/injection, schedule: Q01DX005 (ip), vehicle: suspension in saline): 116 % of control

Cc1sc(Cc2ccccc2)nc1-c1ccc(N=Cc2ccc(N(CCOS(C)(=O)=O)CCOS(C)(=O)=O)cc2)cc1
T/C (endpoint: mean survival time, dose: 25.0 mg/kg/injection, schedule: Q01DX009 (ip), vehicle: saline with Tween-80): 107 % of control
T/C [7]: 93 % of control

CC(=O)Nc1cccc(N=NN(C)C)c1
T/C (endpoint: mean survival time, dose: 12.5 mg/kg/injection, schedule: Q01DX009 (ip), vehicle: Klucel (hydroxypropylcellulose) (HPC)): 113 % of control
T/C [1]: 151 % of control
T/C [3]: 87 % of control
